Assay results published in PMC5303260, “Efficacy, safety and pharmacokinetics of simeprevir and TMC647055/ritonavir with or without ribavirin and JNJ-56914845 in HCV genotype 1 infection” (BMC Gastroenterology, 2017).
Where two headings read alike, the source gives them in different places.

Legend:
[1] = set-up: species or system human; settings: in vivo
Experimental: Plasma pharmacokinetic samples for simeprevir, TMC647055, ritonavir and JNJ-56914845 were collected over 24 h (pre-dose, 1, 2, 3, 4, 5, 6, 8, 10, 12 and 24 h post-dose) at Week 4 from all patients and assayed using validated liquid chromatography-tandem mass spectrometry methods with lower limits of quantification for simeprevir, TMC647055, ritonavir and JNJ-56914845 of 5.0, 5.0, 2.0 and 1.0 ng/mL, respectively (data on file).
No formal sample size calculations were performed as this was a proof-of-concept study. For each efficacy endpoint, the proportion of patients was summarised descriptively together with a 95% confidence interval by treatment group and population. The change in log10 HCV RNA from baseline at all time points was calculated using descriptive statistics. Pharmacokinetic parameters were calculated using non-compartmental analysis (Phoenix WinNonlin® 6.2.1). All safety and tolerability data were summarised descriptively.

[2] = system: HCV NS3/4A; experiment: Population-based sequencing at time of failure, NS3/4A region; set-up: species or system hepatitis C virus
[3] = system: organic anion transporting polypeptide (OATP) 1B1/3; settings: cited from earlier work
[4] = system: cytochrome P450 (CYP) 3A; settings: cited from earlier work
[5] = system: P-glycoprotein; settings: cited from earlier work
[6] = cited from earlier work; for change in plasma concentrations on co-administration with JNJ-56914845: healthy volunteers, not considered clinically relevant
[7] = system: HCV NS5A; settings: all patients with virologic failure in Panel 4
[8] = system: HCV GT1, 4, 5 and 6a/6b; set-up: method as in PMID 24107072, PMID 24126581; settings: cited from earlier work
[9] = system: HCV NS5A; set-up: method as in PMID 24126581; settings: L31M and Y93C (in combination with M28V), GT1a; cited from earlier work
[10] = system: breast cancer resistance protein; settings: cited from earlier work
[11] = system: HCV NS5B; experiment: Population-based sequencing at time of failure, NS5B region; set-up: species or system hepatitis C virus; settings: patients with virologic failure
[12] = system: HCV replicon with NS5B NNI-1 pocket polymorphisms; experiment: In vitro susceptibility of site-directed mutant replicons (baseline NS5B polymorphisms); assay type: cell-based, hepatitis C virus; settings: NS5B polymorphisms observed at baseline (positions 37, 392, 424, 425, 494, 499) with site-directed mutagenesis data
Description: NS5B polymorphisms were detected at baseline at the non-nucleoside inhibitor (NNI)-1 binding pocket positions 37, 392, 424, 425, 494 and/or 499 across all panels.

[13] = system: HCV GT1, 3, 4, 5 and 6; set-up: method as in PMID 24144360; settings: cited from earlier work

Compound: CC(C)c1nc(CN(C)C(=O)N[C@H](C(=O)N[C@@H](Cc2ccccc2)C[C@H](O)[C@H](Cc2ccccc2)NC(=O)OCc2cncs2)C(C)C)cs1 [ritonavir]
- differences in pharmacokinetics based on ribavirin use [1]: No differences

Compound: COc1ccc2c(O[C@@H]3C[C@H]4C(=O)N[C@]5(C(=O)NS(=O)(=O)C6CC6)C[C@H]5/C=C\CCCCN(C)C(=O)[C@@H]4C3)cc(-c3nc(C(C)C)cs3)nc2c1C [simeprevir]
- differences in pharmacokinetics based on ribavirin use [1]: No differences
- exposure compared with historical data for simeprevir 150 mg once daily [1]: within the range observed in historical data
- emerging NS3 mutations at time of failure ([2]; GT1a-infected patients with virologic failure (R155K alone or with Q80R; R155S)): NS3 position 155
- emerging NS3 mutation at time of failure ([2]; most GT1b-infected patients with virologic failure): NS3 position 168
- OATP1B1/3 inhibition [3]: inhibits
- CYP3A substrate / inhibitor status [4]: substrate and mild inhibitor (intestinal only)
- P-glycoprotein inhibition [5]: inhibits
- change in plasma concentrations on co-administration with JNJ-56914845 [6]: small increases

Compound: COC(=O)N[C@H](C(=O)N1CCC[C@H]1c1ncc(-c2ccc(-c3ccc(-c4cnc([C@@H]5CC6(CN5C(=O)[C@@H](NC(=O)OC)C(C)C)OCCO6)[nH]4)cc3)cc2)[nH]1)C(C)C [JNJ-56914845]
- emerging RAVs at time of failure [7]: NS5A positions 30 and/or 31
- in vitro antiviral activity [8]: in vitro antiviral activity against HCV GT1, 4, 5 and 6a/6b
- OATP1B1/3 inhibition ([3]; in vitro, ref data on file): inhibits
- baseline NS5A polymorphisms and in vitro resistance [9]: associated with in vitro resistance
- CYP3A substrate status [4]: substrate
- P-glycoprotein inhibition [5]: inhibits
- P-glycoprotein substrate status [5]: substrate
- breast cancer resistance protein inhibition [10]: inhibits
- increase in exposure (AUC0–24h) on co-administration of simeprevir ([6]; human, in vivo): 2.6 fold

Compound: COc1ccc2c(c1)C=C1Cn3c-2c(C2CCCCC2)c2ccc(cc23)C(=O)NS(=O)(=O)N(C)CCOCCN(C)C1=O [TMC647055]
- differences in pharmacokinetics based on ribavirin use [1]: No differences
- increase in exposure with dose [1]: more than dose-proportional increase
- resistance-associated variants (RAVs) observed at failure [11]: NS5B position 495 (mainly P495L)
- fold change in 50 % effective concentration compared to wild-type replicon [12]: < 2
- in vitro antiviral activity [13]: in vitro antiviral activity against HCV GT1, 3, 4, 5 and 6
- change in plasma concentrations on co-administration with JNJ-56914845 [6]: small increases
